Laboratory results reported in patent publication US8673852B2, “Methods of treating neuronal disorders using MNTF peptides and analogs thereof” (Genervon Biopharmaceuticals, LLC, priority 2006, dated 2014).
Where “and” joins values, the source holds several entries; their conditions need not be identical. Identical values can stand only once. Like-named read-outs stand apart in the source and are kept apart here. Ends that are not written are not given here.

Assays:
SH-SY5Y cells = experiment: Cell culture model of Parkinson's disease: SH-SY5Y cell viability (MTT) with or without salsolinol; format: cell-based, human; settings: for Viability (% Cells) Mean ± SD: 24 h
Procedure: SH-SY5Y cells were purchased from American Type Culture Collection (Manassas, Va.) and cultured in a complete media containing minimum essential media, Hams F-12 media and Hanks Balanced Salt Solution Gibco-BRL) in a ratio of 2:1:1. The media also contained 10% fetal bovine serum along with penicillin (50 U/ml) and streptomycin ([…]). The cells were cultured in flasks and kept in a humidified incubator containing 5% CO2 in air at 37° C. The media was changed every 2-3 days.
Prior to manipulation, cultures were assigned to different treatment groups based on a randomized block design.
For cell viability experiments, SH-SY5Y cells (0.5×10^5/well) were cultured in a 96-well cell culture plate and treated with (±) SAL (Sigma, St. Louis, Mo.) alone or along with different concentrations of (GM6) (Genervon), with or without Wortmannin (WRT) (Sigma, St. Louis, Mo.), a phosphatidylinositol-3-kinase (PI-3 kinase) inhibitor, for 24 h. Cell viability was determined by Thiazolyl blue (MTT) assay.

embryonic stem cells = experiment: Differentiation of embryonic stem cells into motor neurons in vitro; format: cell-based, murine
[1] = test system: stem cell derived motor neurons; experiment: Survival of stem cell derived motor neurons; format: cell-based; settings: compared with MNTF 33mer
[2] = test system: permanent middle cerebral artery occlusion (MCAO) rat model; experiment: Permanent middle cerebral artery occlusion (MCAO) rat model, 28 days; settings: 2.5, 10 or 20 mg/kg IV
[3] = Immunocytochemical analysis of brain for GM6 with anti-6mer antibody; format: in vivo, C57BL/6 mice; settings: 0.2 or 2 mg/kg IV
Procedure: (§1) C57BL6 mice were injected with GM6 at the indicated doses and examined for GM6 in the brain. Half of the brain was taken for immunocytochemical analysis for GM6, the other half (brain) was frozen for ELISA analysis.
(§2) Animals were acclimated for 1 week prior to experimentation. The animals were bolus i.v. dosed via tail vein with vehicle or GM6 at 0.2 or 2 mg/kg. […] Vehicle control received saline solution.
The immunocytochemical stained area in each section was determined with a computer-assisted image analysis system, consisting of a Power Macintosh computer equipped with a Quick Capture frame grabber card, Hitachi CCD camera mounted on an Olympus microscope and camera stand. NIH Image Analysis Software, v. 1.55 was used. The images were captured and the total area of GM6 peptide was determined over the ten sections.

Safety in animal studies = format: in vivo; settings: over 1000 Sprague Dawley rats and 15 of both wobbler mice and normal littermates
[4] = GM6 levels in brain by competitive ELISA after IV injection (blood brain barrier penetration); format: in vivo, C57BL/6 mice; settings: for increase in GM6 in the brain vs vehicle: 4 hours; for level at time molar at 4 h: male, C57BL/6, mouse, WT mice, brain collected 4 hours later, read-out: ELISA MNTF (μM) in the brain
Procedure: as §1, §2
To measure GM6 levels in samples using the competitive ELISA kit. Affinity purified rabbit anti-6Mer was coated on ELISA plate at 10 ug/ml in coating buffer. 6Mer-biotin was used at 1 uM (final dilution) in the assay. The known concentrations of GM6 (competitor) were used as reference standards starting from 80 uM and titrating 2-fold down 0.625 uM in the test for establishing standard curve. Concentration of tested samples was estimated from their OD450 observation based on the standard curve.
The brain tissue was prepared in cell lysis buffer containing 100 mM Tris HCl, pH 7.0, containing 2% BSA, 1 M NaCl, 4 mM EDTA, 2% Triton X-100, 0.1% sodium azide and protease inhibitors (Complete™, Mini, Boehringer Mannheim). Homogenates were prepared in 10 volumes of buffer to tissue wet weight. The homogenates were centrifuged for 30 minutes at 14,000×g. The resulting supernatant was used for ELISA with the appropriate volume adjustment.
For the assay, the anti-6Mer pAb was diluted to 10 ug/ml in ELISA coating buffer. The 96-well micro-titer plates were coated with 100 ul/well of the diluted pAb. The plates were covered and kept refrigerated overnight. Next day, the plates were blocked with 200 ul/well TBS with 3% BSA, and kept at RT for 60 min. The plates were washed 3× with TBST (TBS+0.05% Tween 20). For each plate, 10 ml 1 uM 6Mer-biotin and make 1 ml standard mix was prepared: 1 uM 6Mer-biotin with 80 uM 6Mer. For each plate, lanes 1 and 2 were used for the standard curve. 1 uM 6Mer-biotin (100 μl) was added to all wells except A1 and A2 and 200 ul/well of standard mix was added to A1 and A2. A serial 2-fold dilution from wells A1 and A2 down to wells H1 and H2 was performed by taking out 100 ul sample from each well and mix it with next well—pipetting up and down at least 8 times. The extra 100 ul at the final wells (H1 and H2) was discarded. Test samples (brain homogenate) was diluted in Ab dilution buffer and mixed at a 1:50 with the 1 uM 6Mer-biotin. The plate was mixed on a shaker at 400 rpm for 2 hours at RT. The samples were washed 6× with TBST. Streptavidin-HRP (10 ml per plate) solution was prepared by diluting Streptavidin-HRP to 1:2000 in Ab dilution buffer. The plate was mixed on the shaker for another 1 hour at RT. The samples were wash 8× with TBST. […] The reaction was stopped with 50 ul 1M HCl. and read OD450 immediately.

[5] = test system: middle cerebral artery occlusion (MCAO) mouse model; experiment: MCAO mouse model, 1 hour ischemia and 14 days reperfusion, time of first dose varied; format: in vivo, C57BL/6 mice; settings: 5 mg/kg IV
Procedure: (§3) The MABP and heart rate was recorded using a Visitech System blood pressure monitor.
Formulation of GM602 (CS Bio Co., Menlo Park, Calif., CS1507, GMP013, lot C811) was performed by NTS as a stock solution by reconstituting GM602 with (100%) saline that was stored at 4° C. Vehicle control received saline solution. The bolus IV injections via tail with GM602 was initiated at times of 0, 3, 6, 12 and 24 hours after the start of reperfusion and subsequently every day for 3 days following injury.
(§4) This study involved a transient model of ischemia. […] After the nylon suture was in place for 1 hour, it was pulled back into the ECA and the incision closed.
. […] The brains were removed and chilled for 15 minutes at −20° C. before being placed in a Rodent Brain Matrix. Coronal sections (1-mm thickness) were prepared and subjected to 2% triphenyltetrazolium chloride (TTC) staining at 37° C. Seven serial one-mm thick coronal sections through the rostral to caudal extent of the infarction were obtained from each brain, beginning two-mm from the frontal pole. […] The infarct area in each section was determined with a computer-assisted image analysis system, consisting of a Power Macintosh computer equipped with a Quick Capture frame grabber card, Hitachi CCD camera mounted on an Olympus microscope and camera stand. […] The images were captured and the total area of damage determined over the seven sections.

[6] = test system: primary rat neuronal cell cultures; format: cell-based
Procedure: Sprague Dawley rat cortical neuronal cells were isolated from 18-day-old embryonic fetuses and growth in culture for 12 days. Post mortem CSF from control and various neurological disorders donors were applied to the cultures and examined for neuronal viability. In addition, MNTF was added to the cultures to protect the cells from injury.
Neuronal cultures were prepared from 18-day-old Sprague-Dawley rat fetuses. Fetal rat midbrains were dissected and incubated for 15 min in a solution of 2 mg/mL trypsin in Ca2+- and Mg2+-free Hanks' balanced salt solution (HBSS) buffered with 10 mM HEPES (GIBCO Life Technologies, Paisley, Scotland). The tissue was then exposed for 2 min to soybean trypsin inhibitor (1 mg/mL in HBSS) and rinsed three times in HBSS. Cells were dissociated by trituration and distributed to 96-well or 24-well poly-L-lysine-coated plastic culture plates (Costar, Cambridge, Mass.). Initial plating densities were approximately 160-180 cells/mm2. At the time of plating, each well contained 0.2 ml of DMEM/F12 medium (GIBCO Life Technologies, NY) supplemented with 100 mL/L fetal bovine serum (Sigma Chemicals, St. Louis, Mo.). After a 24-hr period, the DMEM/F12 medium was replaced with 0.15 mL of 2% v/v B-27 Neurobasal medium supplemented with 2 mM GlutaMAX and 0.5% w/v D-(+) glucose (GIBCO Life Technologies). Twice a week, two-thirds of the Neurobasal medium was replaced with freshly prepared medium of the same composition. Cultures were used for neurotoxicity experiments after 12 days in culture. The research investigators at NTS were unaware of the material prior to, during the study and when the preliminary data were presented to the Sponsor (GB).
UCLA Human Brain and Spinal Fluid Resource Center (Los Angeles, Calif.) supplied the post mortem CSF samples from five donors of each of the nine study groups along with identification and clinical diagnosis and neuropathology diagnosis documents. Samples were stored at −170° C. prior to shipment and were shipped with dry ice. The study groups were control (no neurological disorder), Amyotrophic Lateral Sclerosis (ALS), Neuropathy (NP), Multiple Sclerosis (MS), Alzheimer's Disease (AD), Batten's Disease (BD), Huntington's Disease (HD), Parkinson's Disease (PD), and Cerebral Ischemia (stroke).
To test the effects of CSF on neuronal cell survival, CSF was added to the cultures in Neurobasal medium containing 10% CSF. CSF was added to the cultures and examined after 48 hours. Images of cultures were taken and then the cultures were subjected to MTT assay (see below) to determine the % cell death. Additional cultures were incubated with MNTF (100 nM) added to the cultures 2 hours prior to addition of CSF.
MTT assay. Viability of primary neurons was determined as described. The relative number of surviving cells was determined in triplicate using the value for cells stimulated with vehicles as 100%. Cell survival was assessed on the 2nd day of treatment via an MTT assay. MTT (3-[4,5-dimethylthiazol-2-yl]-2,5-diphenyltetrazolium bromide) was diluted to […] in Hanks' solution (Biochrom) and added to cultures for two hours at 37° C. The MTT formazan product was released from the cells by adding dimethylsulfoxide, and measured at 570 nm in an Ultrospect III spectrophotometer (Pharmacia). Relative survival in comparison to untreated controls could then be determined.

[7] = test system: middle cerebral artery occlusion (MCAO) mouse model; experiment: Middle cerebral artery occlusion (MCAO) mouse model, 1 hour ischemia and 24 hours reperfusion; format: in vivo, C57BL/6 mice; settings: 1 or 5 mg/kg IV single dose
Procedure: as §3
All animals were subjected to 1.0 h ischemia followed by 24 h reperfusion. […] Vehicle control received saline solution.
as §4
. The brains were transcardially perfused with 4 degree C., 10% phosphate-buffered saline (PBS). The brains were removed and chilled for 15 minutes at −20 degree C. before being placed in a Rodent Brain Matrix. Coronal sections (1-mm thickness) were prepared and subjected to 2% triphenyltetrazolium chloride (TTC) staining at 37 degree C. Seven serial one-mm thick coronal sections through the rostral to caudal extent of the infarction were obtained from each brain, beginning two-mm from the frontal pole. The TTC stained sections were placed in 10% neutral buffered formalin and kept in darkness at 4° C. for at least 24 hours. The infarct area in each section was determined with a computer-assisted image analysis system, consisting of a Power Macintosh computer equipped with a Quick Capture frame grabber card, Hitachi CCD camera mounted on an Olympus microscope and camera stand. NIH Image Analysis Software, v. 1.55 was used. The images were captured and the total area of damage determined over the seven sections.

Compound: C[C@@H]1NCCc2cc(O)c(O)cc21 [Salsolinol, reference compound]
- Viability (% Cells) Mean ± SD (SH-SY5Y cells; Salsolinol 100 μM alone, MTT): 36.48 ± 12.78%
- Viability (% Cells) Mean ± SD (SH-SY5Y cells; Salsolinol 100 μM alone, MTT, listed as SAL): 36.5%
- decrease in the number of cells (SH-SY5Y cells; salsolinol 100 μM, 24 hour treatment): 63.7%

Compound: LGTFWGDTLNCWMLSAFSRYARCLAEGHDGPTQ (LGTFWGDTLNCWMLSAFSRYARCLAEGHDGPTQ) [33-mer]
- differentiation of ES cells into motor neurons (embryonic stem cells; in conjunction with a low concentration of RA): induced differentiation

Compound: MLSAFSRYAR [MNTF 10mer]
- concentrations at which at least as effective as the full-length MNTF 33mer at stimulating differentiation of embryonic stem cells into motor neurons (embryonic stem cells; in vitro): ≥ 0.01 µg/mL
- enhancing the survival of stem cell derived motor neurons [1]: nearly as effective as the MNTF 33mer

Compound: FSRYAR [GM6, FSRYAR]
- changes in HR, BP, pO2, pCO2, or pH [2]: no changes
- immunoreactivity for GM6 in brain tissue [3]: No immunoreactivity was detected
- Viability (% Cells) Mean ± SD (SH-SY5Y cells; GM6 0.1 mg/ml, no salsolinol, MTT): 101.2 ± 7.260%
- Viability (% Cells) Mean ± SD (SH-SY5Y cells; GM6 1 mg/ml, no salsolinol, MTT): 108.0 ± 8.249%
- Viability (% Cells) Mean ± SD (SH-SY5Y cells; GM6 10 mg/ml + WRT (10 μM), no salsolinol): 93.81 ± 9.246%
- Viability (% Cells) Mean ± SD (SH-SY5Y cells; GM6 10 mg/ml, no salsolinol, MTT): 119.9 ± 14.01%
- Viability (% Cells) Mean ± SD (SH-SY5Y cells; Salsolinol 100 μM + GM6 0.1 mg/ml): 66% and 65.85 ± 10.80%
- Viability (% Cells) Mean ± SD (SH-SY5Y cells; Salsolinol 100 μM + GM6 1 mg/ml): 85% and 85.19 ± 10.18%
- Viability (% Cells) Mean ± SD (SH-SY5Y cells; Salsolinol 100 μM + GM6 10 mg/ml + WRT (10 μM)): 41.35 ± 10.79%
- Viability (% Cells) Mean ± SD (SH-SY5Y cells; Salsolinol 100 μM + GM6 10 mg/ml): 95% and 95.57 ± 8.328%
- safety problems in animal studies (Safety in animal studies): No safety problems were identified
- increase in GM6 in the brain vs vehicle ([4]; 0.2 mg/kg IV bolus): 400%
- increase in GM6 in the brain vs vehicle ([4]; 2 mg/kg IV bolus): 3000%
- level at time molar at 4 h ([4]; 0.2 mg/kg IV bolus): 1.76 µM
- level at time molar at 4 h ([4]; 2 mg/kg IV bolus): 12.9 µM
- changes in CBF, HR, BP, pO2, pCO2, or pH [5]: no changes
- % increase (↑) in cell survival ([6]; AD CSF + 100 nM MNTF vs AD CSF): 191%
- % increase (↑) in cell survival ([6]; ALS CSF + 100 nM MNTF vs ALS CSF): 175%
- % increase (↑) in cell survival ([6]; HD CSF + 100 nM MNTF vs HD CSF): 271%
- % increase (↑) in cell survival ([6]; MS CSF + 100 nM MNTF vs MS CSF): 246%
- % increase (↑) in cell survival ([6]; PD CSF + 100 nM MNTF vs PD CSF): 198%
- % increase (↑) in cell survival ([6]; Stroke CSF + 100 nM MNTF vs Stroke CSF): 205%
- changes in HR, BP, pO2, pCO2, or pH [7]: no changes
